ChEMBL document CHEMBL2074260, “Role of breast cancer resistance protein in the bioavailability and fetal penetration of topotecan” (J Natl Cancer Inst, 2000)

How the values were obtained:
Format in all cases: functional, cell-based
[1] = biological target: T1, Broad substrate specificity ATP-binding cassette transporter ABCG2 (Mus musculus, UniProt Q7TMS5); assay: TP_TRANSPORTER: inhibition of Topotecan transepithelial transport (basal to apical)(Topotecan: 10uM, GF120918:10uM) in Bcrp1-expressing LLC-PK1 cells; conditions: pig, llc-pk1, 10 µM
T1 sequence (Q7TMS5 whole entry): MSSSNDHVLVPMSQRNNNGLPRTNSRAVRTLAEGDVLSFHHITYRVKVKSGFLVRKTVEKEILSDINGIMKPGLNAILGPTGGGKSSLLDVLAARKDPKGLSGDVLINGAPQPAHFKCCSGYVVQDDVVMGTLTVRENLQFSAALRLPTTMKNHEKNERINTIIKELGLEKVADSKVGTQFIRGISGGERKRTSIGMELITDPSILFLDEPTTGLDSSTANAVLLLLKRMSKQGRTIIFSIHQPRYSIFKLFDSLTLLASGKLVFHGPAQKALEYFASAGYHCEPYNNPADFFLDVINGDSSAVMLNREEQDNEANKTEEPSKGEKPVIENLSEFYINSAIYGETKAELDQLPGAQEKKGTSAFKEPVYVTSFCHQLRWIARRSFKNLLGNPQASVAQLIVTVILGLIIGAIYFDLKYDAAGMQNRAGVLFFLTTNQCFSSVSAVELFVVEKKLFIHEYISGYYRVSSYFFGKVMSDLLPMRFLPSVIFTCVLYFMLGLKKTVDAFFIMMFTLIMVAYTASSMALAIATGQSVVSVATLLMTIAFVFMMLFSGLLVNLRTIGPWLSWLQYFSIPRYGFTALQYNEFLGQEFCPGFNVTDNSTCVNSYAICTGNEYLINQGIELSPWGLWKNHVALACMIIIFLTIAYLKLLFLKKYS

[2] = biological target: T1, Broad substrate specificity ATP-binding cassette transporter ABCG2; assay: TP_TRANSPORTER: transepithelial transport (basal to apical) in Bcrp1-expressing LLC-PK1 cells; conditions: pig
[3] = biological target: T1, Broad substrate specificity ATP-binding cassette transporter ABCG2; assay: TP_TRANSPORTER: inhibition of Topotecan transepithelial transport (basal to apical) in Bcrp1-expressing LLC-PK1 cells; conditions: pig

COc1cc2c(cc1OC)CN(CCc1ccc(NC(=O)c3cccc4c(=O)c5cccc(OC)c5[nH]c34)cc1)CC2.Cl [ELACRIDAR HYDROCHLORIDE]
Activity [1]: inhibitor [+]

CC[C@@]1(O)C(=O)OCc2c1cc1n(c2=O)Cc2cc3c(CN(C)C)c(O)ccc3nc2-1 [TOPOTECAN]
Activity [2]: substrate [+]

C/C=C/C[C@@H](C)C(=O)[C@H]1C(=O)N[C@@H](C(C)C)C(=O)N(C)CC(=O)N(C)[C@@H](CC(C)C)C(=O)N[C@@H](C(C)C)C(=O)N(C)[C@@H](CC(C)C)C(=O)N[C@@H](C)C(=O)N[C@H](C)C(=O)N(C)[C@@H](CC(C)C)C(=O)N(C)[C@@H](CC(C)C)C(=O)N(C)[C@@H](C(C)C)C(=O)N1C [VALSPODAR]
Activity [3]: is not an inhibitor [-]
